Here are results for eleven molecules from ChEMBL document CHEMBL1135163, “Design, synthesis, and evaluation of postulated transient intermediate and substrate analogues as inhibitors of 4-hydroxyphenylpyruvate dioxygenase” (Bioorg Med Chem Lett, 2002).

The target of the test is 4-hydroxyphenylpyruvate dioxygenase (Sus scrofa, UniProt Q02110). The experiment in a line: In vitro inhibition against of 4-Hydroxyphenylpyruvate dioxygenase (4-HPPD) from pig liver by the enol borate method.
Chain of 4-hydroxyphenylpyruvate dioxygenase (Q02110 whole entry): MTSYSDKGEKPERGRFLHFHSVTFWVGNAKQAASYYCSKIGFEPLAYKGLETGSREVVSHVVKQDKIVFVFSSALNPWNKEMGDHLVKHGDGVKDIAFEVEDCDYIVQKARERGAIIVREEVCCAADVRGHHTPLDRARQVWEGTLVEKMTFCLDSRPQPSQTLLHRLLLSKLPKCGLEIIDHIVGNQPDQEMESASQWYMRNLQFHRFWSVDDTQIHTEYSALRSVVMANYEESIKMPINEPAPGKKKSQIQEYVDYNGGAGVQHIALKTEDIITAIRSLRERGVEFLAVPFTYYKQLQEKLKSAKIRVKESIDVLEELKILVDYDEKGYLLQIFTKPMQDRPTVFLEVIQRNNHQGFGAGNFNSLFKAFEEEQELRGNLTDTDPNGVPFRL
By IC50 is commonly meant the concentration needed to halve the response being measured. Lower therefore signals inhibition by little substance. For `C=C(c1ccccc1)C(O)C(=O)OC` (stereo unspecified), the half-inhibitory concentration (IC50) was more than 900 µM. For `COC(=O)CC12OC1C(=O)C(OC)=CC2=O` (stereo unspecified) the value was 500 µM; for `O=C(O)COc1ccc(O)cc1`, 6 µM. In the case of `COC(=O)CC1=CC(=O)C(OC)=CC1=O` it was 150 µM; in that of `O=C1OCC(c2ccccc2)=C1O`, 0.5 µM.

`CC(Oc1ccc(O)cc1)C(=O)O` (stereo unspecified) came in with an IC50 of 93 µM. As to `CCOC(=O)C(C)Oc1ccc(O)cc1` (stereo unspecified), half-maximal inhibition (IC50) required 588 µM. Molecule `COC(=O)C1OC1(C)c1ccccc1` (stereo unspecified) showed an IC50 of 120 µM. In turn, `CCOC(=O)COc1ccc(O)cc1` showed an IC50 of 73 µM.

As to `COC(=O)COc1ccc(O)cc1`, the IC50 stood at 223 µM.

Take `C=C(c1ccccc1)C(O)C(=O)O` (stereo unspecified): the IC50 is more than 900 µM.
